Assay results as given in patent US9040307B2, “Fluorescent pH detector system and related methods” (Blood Cell Storage, Inc., priority 2011, dated 2015).
Like-named read-outs stand apart in the source and are kept apart here.

What was measured:
[1] = Photobleaching degradation under fluorescent light; type: physicochemical
Protocol: A photobleaching degradation curve for EBIO-3 and BCSI-3 was constructed utilizing fluorescent light exposure and measuring the absorption at 530 nm to quantify functional dye. Identical concentrations of both dyes, 7.9 μM, were exposed to continuous fluorescent light (34 W Philips Hg bulb) from a distance of 16 inches for 3 days. At 73.5 hours the two dyes had degraded 64% and the degradation is within 5.6% of each other.

[2] = pKa determination from fluorescence emission spectra of SNAFL free acids; type: physicochemical; conditions: 10 μM free acid, 50 mM phosphate buffers
From the text: The pH at which two molecular species (tautomers) are equally represented is defined as the pKa. There are many variables that can affect pKa and methods for measurement are difficult since the structures have overlapping absorbance. Therefore direct comparisons from the literature can vary slightly. The calculations contained herein are based on the assumption that, at pH 10, only the trianionic naphtholate structure is present. The intensity of fluorescence at the emission maxima is divided by 2, and pH of the intersecting pH curve is calculated by interpolation between the nearest 2 curves.

[3] = Absorbance and emission spectra versus pH of SNAFL analogs in solution
[4] = Absorbance and fluorescence of fluorophore/HSA conjugates in solution; type: physicochemical; conditions: pH 7.4; free acid 10 micromolar, conjugates 1 micromolar
[5] = cited from earlier work
[6] = Lee et al. (1989) Cytometry 10, 151-164

Molecule	degraded (reduction in absorbance at 530 nm) ([1]; 73.5 hours continuous fluorescent light, 7.9 μM, pH 7.4 PBS)	absorption at 530 nm of control set ([1]; protected from light)	pKa [2]	pKa (physchem)	Absorbance λmax (base) ([3]; 10 μM, pH 10)	Emission λmax (base) ([3]; pH 10, excitation at absorbance λmax (base))	Emission λiso ([3]; wavelength where emission spectra crossed, excitation at absorbance λmax (base))	absorbance maximum [4]	pKa [5, 6]	pKa ([5]; published values, free or immobilized dye)
O=C(O)CCc1cc2c(-c3ccccc3C(=O)O)c3ccc4cc(O)c(Cl)cc4c3oc-2cc1=O [EBIO-3]	64%	unchanged	6.6	6.61	534 nm	610 nm	560 nm	534 nm		
O=S1(=O)OC2(c3ccccc31)c1ccc3cc(O)ccc3c1Oc1c2ccc2cc(O)ccc12 [VITABLUE]									7.56	
Carboxynaphthofluorescein [CNF]									7.99	7.62
